Assay results as given in patent US9427482B2, “Agents for clearing biomolecules from circulation” (KONINKLIJKE PHILIPS N.V., priority 2010, dated 2016).

Key:
LS174T xenografts [1] = assay: Dual isotope biodistribution with different amounts of clearing agent 12 (Example 6); format: in vivo, mice
Description: (§1) LS174T tumor model. The human colon cancer cell line LS174T was obtained from the ATCC and maintained in Eagle's minimal essential medium (Sigma) supplemented with 10% heat inactivated fetal calf serum (Gibco), penicillin (100 U/mL), streptomycin (100 μg/mL) and […] Glutamax. Nude female Balb/C mice (20-25 g body weight, Charles River Laboratories) were inoculated subcutaneously with 5×10^6 cells in 100 μL sterile PBS.
Nude female mice (n=3-4) bearing LS174T xenografts (0.32±0.16 g) were injected ^125I-CC49-TCO (t=0, 100 μg/100 μl per mouse) followed by 20-200 μg galactose-MSA-tetrazine (12) dissolved in 100 μl saline solution (t=24 hours) and ^111In-labeled 15 (21.3 μg/75 μl per mouse, t=26 hours). At 29 hours post mAb injection, the mice were sacrificed, blood was withdrawn by heart puncture and selected organs and tissues were harvested and blotted dry. The blood samples and tissues were weighed, added with 1 mL PBS and the radioactivity was counted in a gamma counter along with standards to determine the % ID/g (Table 1).

LS174T xenografts [2] = assay: Biodistribution with single and repeated dose of clearing agent 12 (Example 7); format: in vivo, mice
Description: as §1
Nude female mice (n=4-6) bearing LS174T xenografts (0.38±0.23 g) were injected ^125I-CC49-TCO (t=0, 100 μg/100 μl per mouse) followed by (a) one 160 μg/100 μl dose of galactose-MSA-tetrazine (12) 48 hours post mAb injection, or (b) two 160 μg/100 μl 12 doses 46 and 48 hours post mAb injection, or (c) two 160 μg/100 μl 12 doses 28 and 48 hours post mAb injection. At 50 hours post mAb injection, the mice received 8.52 μg ^111In-tetrazine and were then sacrificed three hours later, blood was withdrawn by heart puncture and selected organs and tissues were harvested and blotted dry. The blood samples and tissues were weighed, added with 1 mL PBS and the radioactivity was counted in a gamma counter along with standards to determine the % ID/g. The biodistribution data of ^125I-CC49-TCO and ^111In-tetrazine are shown in Table 2 and the ^111In-tetrazine T/organ values are shown in Table 3.

[3] = without clearing agent, 21.3 μg tetrazine/mouse 24 hours post mAb injection; cited from earlier work
[4] = One dose (a): 12 at 48 h post mAb
[5] = Two doses (b): 12 at 46 and 48 h
[6] = Two doses (c): 12 at 28 and 48 h

^111In-tetrazine T/B (LS174T xenografts [1]; 12 dose 20 μg/mouse): 4.5 ± 0.5
^111In-tetrazine Tumor (LS174T xenografts [1]; 12 dose 20 μg/mouse): 3.7 ± 0.8 % ID/g
^111In-tetrazine T/B (LS174T xenografts [1]; 12 dose 45 μg/mouse): 4.8 ± 0.3
^111In-tetrazine Tumor (LS174T xenografts [1]; 12 dose 45 μg/mouse): 4.1 ± 1.3 % ID/g
^111In-tetrazine T/B (LS174T xenografts [1]; 12 dose 80 μg/mouse): 9.2 ± 1.6
^111In-tetrazine Tumor (LS174T xenografts [1]; 12 dose 80 μg/mouse): 3.8 ± 1.1 % ID/g
^111In-tetrazine T/B (LS174T xenografts [1]; 12 dose 120 μg/mouse): 11.5 ± 4.2
^111In-tetrazine Tumor (LS174T xenografts [1]; 12 dose 120 μg/mouse): 3.0 ± 0.8 % ID/g
^111In-tetrazine T/B (LS174T xenografts [1]; 12 dose 160 μg/mouse): 31.6 ± 10.5
^111In-tetrazine Tumor (LS174T xenografts [1]; 12 dose 160 μg/mouse): 5.1 ± 1.4 % ID/g
^111In-tetrazine T/B (LS174T xenografts [1]; 12 dose 200 μg/mouse): 19.2 ± 3.0
^111In-tetrazine Tumor (LS174T xenografts [1]; 12 dose 200 μg/mouse): 3.6 ± 0.9 % ID/g
^111In-tetrazine T/organ blood (LS174T xenografts [2]; [4]): 8.2±4.1
^111In-tetrazine T/organ bone (LS174T xenografts [2]; [4]): 10.5 ± 6.5
^111In-tetrazine T/organ brain (LS174T xenografts [2]; [4]): 148.05 ± 61.18
^111In-tetrazine T/organ heart (LS174T xenografts [2]; [4]): 6.7 ± 1.3
^111In-tetrazine T/organ kidney (LS174T xenografts [2]; [4]): 2.8 ± 0.3
^111In-tetrazine T/organ liver (LS174T xenografts [2]; [4]): 10.9 ± 1.7
^111In-tetrazine T/organ lung (LS174T xenografts [2]; [4]): 3.1 ± 0.5
^111In-tetrazine T/organ muscle (LS174T xenografts [2]; [4]): 9.2±3.6
^111In-tetrazine T/organ spleen (LS174T xenografts [2]; [4]): 11.3 ± 3.3
^111In-tetrazine in blood (LS174T xenografts [2]; [4]): 0.40 ± 0.10 % ID/g
^111In-tetrazine in bone (LS174T xenografts [2]; [4]): 0.33 ± 0.12 % ID/g
^111In-tetrazine in brain (LS174T xenografts [2]; [4]): 0.02 ± 0.00 % ID/g
^111In-tetrazine in heart (LS174T xenografts [2]; [4]): 0.45 ± 0.08 % ID/g
^111In-tetrazine in kidney (LS174T xenografts [2]; [4]): 1.07 ± 0.10 % ID/g
^111In-tetrazine in liver (LS174T xenografts [2]; [4]): 0.27 ± 0.04 % ID/g
^111In-tetrazine in lung (LS174T xenografts [2]; [4]): 0.97 ± 0.17 % ID/g
^111In-tetrazine in muscle (LS174T xenografts [2]; [4]): 0.35 ± 0.08 % ID/g
^111In-tetrazine in spleen (LS174T xenografts [2]; [4]): 0.27 ± 0.04 % ID/g
^111In-tetrazine in tumor (LS174T xenografts [2]; [4]): 2.98 ± 0.51 % ID/g
^111In-tetrazine T/organ blood (LS174T xenografts [2]; [5]): 15.2 ± 4.1
^111In-tetrazine T/organ bone (LS174T xenografts [2]; [5]): 16.7 ± 6.7
^111In-tetrazine T/organ brain (LS174T xenografts [2]; [5]): 222.2 ± 73.6
^111In-tetrazine T/organ heart (LS174T xenografts [2]; [5]): 25.6 ± 12.0
^111In-tetrazine T/organ kidney (LS174T xenografts [2]; [5]): 1.6 ± 0.6
^111In-tetrazine T/organ liver (LS174T xenografts [2]; [5]): 11.5 ± 3.7
^111In-tetrazine T/organ lung (LS174T xenografts [2]; [5]): 8.5 ± 4.2
^111In-tetrazine T/organ muscle (LS174T xenografts [2]; [5]): 19.3 ± 9.2
^111In-tetrazine T/organ spleen (LS174T xenografts [2]; [5]): 15.1 ± 4.9
^111In-tetrazine in blood (LS174T xenografts [2]; [5]): 0.10 ± 0.02 % ID/g
^111In-tetrazine in bone (LS174T xenografts [2]; [5]): 0.10 ± 0.02 % ID/g
^111In-tetrazine in brain (LS174T xenografts [2]; [5]): 0.01 ± 0.00 % ID/g
^111In-tetrazine in heart (LS174T xenografts [2]; [5]): 0.07 ± 0.02 % ID/g
^111In-tetrazine in kidney (LS174T xenografts [2]; [5]): 0.95 ± 0.06 % ID/g
^111In-tetrazine in liver (LS174T xenografts [2]; [5]): 0.13 ± 0.01 % ID/g
^111In-tetrazine in lung (LS174T xenografts [2]; [5]): 0.20 ± 0.07 % ID/g
^111In-tetrazine in muscle (LS174T xenografts [2]; [5]): 0.09 ± 0.03 % ID/g
^111In-tetrazine in spleen (LS174T xenografts [2]; [5]): 0.10 ± 0.00 % ID/g
^111In-tetrazine in tumor (LS174T xenografts [2]; [5]): 1.52 ± 0.48 % ID/g
^111In-tetrazine T/organ blood (LS174T xenografts [2]; [6]): 89.0±14.3
^111In-tetrazine T/organ bone (LS174T xenografts [2]; [6]): 93.5 ± 19.7
^111In-tetrazine T/organ brain (LS174T xenografts [2]; [6]): 750.2 ± 87.5
^111In-tetrazine T/organ heart (LS174T xenografts [2]; [6]): 82.9 ± 21.3
^111In-tetrazine T/organ kidney (LS174T xenografts [2]; [6]): 3.7 ± 0.8
^111In-tetrazine T/organ liver (LS174T xenografts [2]; [6]): 32.3 ± 5.9
^111In-tetrazine T/organ lung (LS174T xenografts [2]; [6]): 27.9 ± 7.0
^111In-tetrazine T/organ muscle (LS174T xenografts [2]; [6]): 146.3±30.3
^111In-tetrazine T/organ spleen (LS174T xenografts [2]; [6]): 42.4 ± 7.7
^111In-tetrazine in blood (LS174T xenografts [2]; [6]): 0.05 ± 0.00 % ID/g
^111In-tetrazine in bone (LS174T xenografts [2]; [6]): 0.05 ± 0.01 % ID/g
^111In-tetrazine in brain (LS174T xenografts [2]; [6]): 0.01 ± 0.00 % ID/g
^111In-tetrazine in heart (LS174T xenografts [2]; [6]): 0.05 ± 0.01 % ID/g
^111In-tetrazine in kidney (LS174T xenografts [2]; [6]): 1.18 ± 0.13 % ID/g
^111In-tetrazine in liver (LS174T xenografts [2]; [6]): 0.13 ± 0.01 % ID/g
^111In-tetrazine in lung (LS174T xenografts [2]; [6]): 0.16 ± 0.03 % ID/g
^111In-tetrazine in muscle (LS174T xenografts [2]; [6]): 0.03 ± 0.00 % ID/g
^111In-tetrazine in spleen (LS174T xenografts [2]; [6]): 0.10 ± 0.01 % ID/g
^111In-tetrazine in tumor (LS174T xenografts [2]; [6]): 4.30 ± 0.50 % ID/g
SMILES: O=C([O-])CN1CCN(CC(=O)[O-])CCN(CC(=O)NCCOCCOCCOCCOCCOCCOCCOCCOCCOCCOCCOCCNC(=O)CCCC(=O)Nc2ccc(-c3nnc(-c4ccccn4)nn3)nc2)CCN(CC(=O)[O-])CC1.[111In+3] [^111In-tetrazine]
T/blood ratio [3]: 2.2±0.5
